From the NIST ThermoML archive (doi:10.1016/j.jct.2019.03.007)

Assay: molar heat capacity at constant pressure
Details: 101.33 kPa, Crystal 1, DSC

O=[N+]([O-])[O-].O=[N+]([O-])[O-].[Ca+2] [calcium nitrate]
Details	molar heat capacity at constant pressure [J/K/mol]
588.78 K	184.89
589 K	182.82
589.78 K	184.99
590 K	182.96
590.78 K	185.09
591 K	183.01
591.78 K	185.18
592 K	183.11
592.78 K	185.28
593 K	183.23
593.78 K	185.38
594 K	183.3
594.78 K	185.47
595 K	183.39
595.78 K	185.57
596 K	183.46
596.78 K	185.66
597 K	183.59
597.78 K	185.76
598 K	183.69
598.78 K	185.85
599 K	183.86
599.78 K	185.95
600 K	183.94
600.78 K	186.04
601 K	184.09
601.78 K	186.13
602 K	184.37
602.78 K	186.22
603 K	184.48
603.78 K	186.31
604 K	184.5
604.78 K	186.4
605 K	184.57
605.78 K	186.49
606 K	184.76
606.78 K	186.58
607 K	184.8
607.78 K	186.67
608 K	184.92
608.78 K	186.76
609 K	184.95
609.78 K	186.85
610 K	185
610.78 K	186.93
611 K	185.16
611.78 K	187.02
612 K	185.17
612.78 K	187.1
613 K	185.37
613.78 K	187.19
614 K	185.43
614.78 K	187.28
615 K	185.38
615.78 K	187.37
616 K	185.46
616.78 K	187.46
617 K	185.59
617.78 K	187.56
618 K	185.67
618.78 K	187.65
619 K	185.79
619.78 K	187.75
620 K	185.94
620.78 K	187.84
621 K	185.97
621.78 K	187.94
622 K	185.98
622.78 K	188.03
623 K	186.1
623.78 K	188.13
624 K	186.22
624.78 K	188.23
625 K	186.24
625.78 K	188.32
626 K	186.32
626.78 K	188.42
627 K	186.29
627.78 K	188.51
628 K	186.36
628.78 K	188.61
629 K	186.58
629.78 K	188.7
630 K	186.72
630.78 K	188.8
631 K	186.76
631.78 K	188.9
632 K	186.86
632.78 K	189
633 K	186.9
633.78 K	189.1
634 K	187.01
634.78 K	189.2
635 K	187.13
635.78 K	189.3
636 K	187.08
636.78 K	189.41
637 K	187.29
637.78 K	189.51
638 K	187.33
638.78 K	189.61
639 K	187.55
639.78 K	189.71
640 K	187.7
640.78 K	189.82
641 K	187.58
641.78 K	189.92
642 K	187.69
642.78 K	190.01
643 K	187.72
643.78 K	190.11
644 K	187.93
644.78 K	190.2
645 K	188.1
645.78 K	190.29
646 K	188.11
646.78 K	190.39
647 K	188.18
647.78 K	190.49
648 K	188.31
648.78 K	190.58
649 K	188.36
649.78 K	190.69
650 K	188.66
650.78 K	190.8
651 K	188.76
651.78 K	190.9
652 K	188.78
652.78 K	191.02
653 K	188.91
653.78 K	191.13
654 K	188.99
654.78 K	191.25
655 K	189.03
655.78 K	191.36
656 K	189.11
656.78 K	191.46
657 K	189.18
657.78 K	191.57
658 K	189.28
658.78 K	191.67
659 K	189.43
659.78 K	191.77
660 K	189.5
660.78 K	191.87
661 K	189.61
661.78 K	191.96
662 K	189.79
662.78 K	192.06
663 K	189.99
663.78 K	192.15
664 K	190.04
664.78 K	192.23
665 K	190.04
665.78 K	192.32
666 K	190.16
666.78 K	192.4
667 K	190.23
667.78 K	192.49
668 K	190.12
668.78 K	192.56
669 K	190.21
669.78 K	192.64
670 K	190.28
670.78 K	192.72
671 K	190.33
671.78 K	192.79
672 K	190.55
672.78 K	192.86
673 K	190.57
673.78 K	192.94
674 K	190.71
674.78 K	193.03
675 K	190.83
675.78 K	193.12
676 K	190.98
676.78 K	193.22
677 K	191.19
677.78 K	193.31
678 K	191.02
678.78 K	193.41
679 K	190.93
679.78 K	193.5
680 K	191.02
680.78 K	193.6
681 K	191.22
681.78 K	193.69
682 K	191.4
682.78 K	193.78
683 K	191.29
683.78 K	193.87
684 K	191.45
684.78 K	193.96
685 K	191.66
685.78 K	194.03
686 K	191.74
686.78 K	194.08
687 K	191.8
687.78 K	194.13
688 K	191.86
688.78 K	194.18
689 K	191.92
689.78 K	194.23
690 K	192.07
690.78 K	194.31
691 K	192.16
691.78 K	194.39
692 K	192.21
692.78 K	194.47
693 K	192.34
693.78 K	194.54
694 K	192.63
694.78 K	194.6
695 K	192.66
695.78 K	194.65
696 K	192.73
696.78 K	194.69
697 K	192.85
697.78 K	194.72
698 K	192.92
698.78 K	194.76
699 K	192.96
699.78 K	194.82
700 K	193.02
700.78 K	194.88
701 K	192.93
701.78 K	194.97
702 K	193.11
702.78 K	195.08
703 K	193.19
703.78 K	195.21
704 K	193.21
704.78 K	195.34
705 K	193.35
705.78 K	195.47
706 K	193.66
706.78 K	195.61
707 K	193.92
707.78 K	195.75
708 K	194.3
708.78 K	195.89
709 K	194.69
709.78 K	196.04
710 K	194.54
710.78 K	196.23
711 K	194.48
711.78 K	196.47
712 K	194.48
712.78 K	196.76
713 K	194.61
713.78 K	197.06
714.78 K	197.32
715.78 K	197.53
716.78 K	197.7
717.78 K	197.7
718.78 K	197.46
